In ChEMBL document CHEMBL1142041, “3-(2,5-Dihydro-1H-pyrrol-2-ylmethoxy)pyridines: synthesis and analgesic activity” (2005):

How the values were obtained:
Mus musculus [1] = assay: Analgesic activity of compound in phase I mouse formalin activities at a dose range of […], s.c.; exhibited confounding effects; assay type: functional, organism-based
Mus musculus [2] = assay: Analgesic activity of compound in phase II mouse formalin activities at a dose range of […], s.c.; exhibited confounding effects; assay type: functional, organism-based
Mus musculus [3] = assay: Analgesic activity of compound in phase I mouse formalin activities at a dose range of 0.4-6.3 mg, s.c.; assay type: functional; conditions: sc
Mus musculus [4] = assay: Analgesic activity of compound in phase II mouse formalin activities at a dose range of 0.4-6.3 mg, s.c.; assay type: functional; conditions: sc
Mus musculus [5] = assay: Analgesic activity of compound in phase I mouse formalin activities at a dose range of 0.4-3.1 mg, s.c.; assay type: functional; conditions: sc
Mus musculus [6] = assay: Analgesic activity of compound in phase II mouse formalin activities at a dose range of 0.4-3.1 mg, s.c.; assay type: functional; conditions: sc

C[C@]1(COc2cccnc2)C=CCN1
ED50 (Mus musculus [1]): Counfounding effects | ED50 (Mus musculus [2]): Counfounding effects

C[C@]1(COc2ccc(Cl)nc2)C=CCN1
ED50 (Mus musculus [1]): Counfounding effects | ED50 (Mus musculus [2]): Counfounding effects

Clc1ccc(OC[C@H]2C=CCN2)cn1
ED50 (Mus musculus [3]): 1.6 µmol/kg | ED50 (Mus musculus [4]): 1.6 µmol/kg

Clc1ccc(OC[C@@H]2C=CCN2)cn1
ED50 (Mus musculus [1]): Counfounding effects | ED50 (Mus musculus [2]): Counfounding effects

Clc1ccc(OC[C@H]2CCN2)cn1 [TEBANICLINE]
ED50 (Mus musculus [5]): 0.9 µmol/kg | ED50 (Mus musculus [6]): 0.8 µmol/kg

C[C@@]1(COc2ccc(Cl)nc2)C=CCN1
ED50 (Mus musculus [1]): Counfounding effects | ED50 (Mus musculus [2]): Counfounding effects

C[C@]1(CNc2ccc(Cl)nc2)C=CCN1
ED50 (Mus musculus [1]): Counfounding effects | ED50 (Mus musculus [2]): Counfounding effects
